Measurements published in patent EP0082668A1, “5-(2-Halogenovinyl)-2'-deoxyuridine derivatives, processes for their preparation, pharmaceutical compositions containing them and their use in treating viral infections” (BEECHAM GROUP PLC, priority 1981, dated 1983).
“And” between values parts separate entries of the source, which are not always exact repeats. Identical values can stand only once. Like-named read-outs stand apart in the source and are kept apart here.

Legend:
[1] = system: herpes simplex type 1 virus (HFEM strain); assay: Plaque reduction test in Vero cells infected with herpes simplex type 1 virus; format: cell-based
Procedure: (§1) Vero (African Green Monkey Kidney) cells were grown to confluence in 6 well multidishes, each well being 3.5 cm in diameter. The cells were incubated with herpes simplex type 1 virus (HFEM strain) and overlaid with 0.5 mL of 0.9% agarose (w/v) in maintenance medium containing the test compound at a range of concentrations from 100 pg/mL in half-log dilution steps. The virus infected cultures were then incubated at 37°C for 6 days before fixing in 4% formaldehyde solution and staining with carbolfuchsin. The dishes were then examined to find the concentration of test compound causing a 50% reduction in the number of virus plaques formed (PDD50 value) and the minimum concentration of test compound which killed the cell monolayer, leaving a clear zone devoid of cells and virus plaques (MTD).

[2] = Minimum concentration killing the cell monolayer (MTD), read in the plaque reduction test; format: cell-based, African Green Monkey; conditions: monkey, vero cells; minimum concentration which killed the cell monolayer; virus infected Vero cultures, 6 days at 37°C
Procedure: as §1

[3] = Human alphaherpesvirus 1, 144 h, concentration causing a 50% reduction in the number of virus plaques, Vero cells, HFEM strain, 6 days at 37°C, molar, read-out: PDD50 (the source's name)
[4] = Human alphaherpesvirus 1, 144 h, concentration causing a 50% reduction in the number of virus plaques, Vero cells, HFEM strain, 6 days at 37°C, read-out: PDD50 (the source's name)
[5] = Human alphaherpesvirus 1, Vero, 144 h, read-out: PDD50

SMILES | IC50 [1, 3] | IC50 [1, 4] | MCC at 144 h [2] | IC50 [1, 5]
O=C(OC[C@H]1O[C@@H](n2cc(/C=C/Br)c(=O)[nH]c2=O)C[C@@H]1OC(=O)c1ccc(Cl)c(Cl)c1)c1ccc(Cl)c(Cl)c1 [Example 33, E-5-(2-bromovinyl)-3',5'-di-O-(3,4-dichlorobenzoyl)-2'-deoxyuridine] | 147000 nM | 100 µg/mL | > 100 µg/mL | 
COc1ccc(C(=O)n2c(=O)c(/C=C/Br)cn([C@H]3C[C@H](O)[C@@H](CO)O3)c2=O)cc1 [Example 21, E-5-(2-Bromovinyl)-3-N-p-methoxybenzoyl-2'-deoxyuridine] | 540 nM | 0.25 µg/mL | > 100 µg/mL | 
CCCN(CCC)S(=O)(=O)c1ccc(C(=O)OC[C@H]2O[C@@H](n3cc(/C=C/Br)c(=O)[nH]c3=O)C[C@@H]2O)cc1 [Example 29, E-5-(2-Bromovinyl)-5'-p-(dipropylsulphamoyl)benzoyl-2'-deoxyuridine] | 1870 nM | 1.12 µg/mL | > 100 µg/mL | 
O=C(O[C@H]1C[C@H](n2cc(/C=C/Br)c(=O)[nH]c2=O)O[C@@H]1CO)c1ccccc1 [Example 11, 3'-O-Benzoyl-E-5-(2-bromovinyl)-2'-deoxyuridine] | 3700 nM | 1.6 µg/mL | > 100 µg/mL | 
COc1ccc(C(=O)OC[C@H]2O[C@@H](n3cc(/C=C/Br)c(=O)[nH]c3=O)C[C@@H]2O)cc1 [Example 19, E-5-(2-Bromovinyl)-5'-p-methoxybenzoyl-2'-deoxyuridine] | 13500 nM | 6.3 µg/mL | 100 µg/mL | 
Cc1ccccc1C(=O)O[C@H]1C[C@H](n2cc(/C=C/Br)c(=O)n(C(=O)c3ccccc3C)c2=O)O[C@@H]1CO [Example 49] | 1100 nM | 0.55 µg/mL | 100 µg/mL | 
O=C(C1CCCCC1)n1c(=O)c(/C=C/Br)cn([C@H]2C[C@H](O)[C@@H](CO)O2)c1=O [Example 25, E-5-(2-Bromovinyl)-3-N-cyclohexanecarbonyl-2^1-deoxyuridine] | 720 nM | 0.32 µg/mL | > 100 µg/mL | 
CCCCc1ccc(C(=O)OC[C@H]2O[C@@H](n3cc(/C=C/Br)c(=O)[nH]c3=O)C[C@@H]2O)cc1 [Example 40, E-5-(2-bromovinyl)-5'-0-(4-n-butylbenzoyl)-2'-deoxyuridine] | 12000 nM | 6.1 µg/mL | > 100 µg/mL | 
Cc1ccc(C(=O)OC[C@H]2O[C@@H](n3cc(/C=C/Br)c(=O)[nH]c3=O)C[C@@H]2O)cc1 [Example 38, E-5-(2-Bromovinyl)-5'-O-(4-methylbenzoyl)-2' -deoxyuridine] | 1700 nM | 0.78 µg/mL | > 100 µg/mL | 
CN(C)c1ccc(C(=O)O[C@H]2C[C@H](n3cc(/C=C/Br)c(=O)[nH]c3=O)O[C@@H]2CO)cc1 [Example 42, E-5-{2-bromovinyl)-3'-O-(4-N,N-dimethylaminobenzoyl)-2'-deoxyuridine] | 1400 nM | 0.63 µg/mL | > 100 µg/mL | 
C[Si](C)(C)OC[C@H]1O[C@@H](n2cc(/C=C/Br)c(=O)[nH]c2=O)C[C@@H]1O[Si](C)(C)C [Example 22, E-5-(2-Bromovinyl)-3',5'-bis-O-trimethylsilyl-2'-deoxyuridine] |  |  | > 100 µg/mL | 0.24 µg/mL and 500 nM
CC(C)(C)C(=O)n1c(=O)c(/C=C/Br)cn([C@H]2C[C@H](O)[C@@H](CO)O2)c1=O [Example 24, E-5-(2-Bromovinyl)-3-N-pivaloyl-2'-deoxyuridine] | 1100 nM | 0.46 µg/mL | > 100 µg/mL | 
Cc1ccc(C(=O)O[C@H]2C[C@H](n3cc(/C=C/Br)c(=O)[nH]c3=O)O[C@@H]2CO)cc1 [Example 37, E-5-(2-bromovinyl)-3'-O-(4-methylbenzoyl)-2'-deoxyuridine] | 1400 nM | 0.63 µg/mL | > 100 µg/mL | 
O=C(OC[C@H]1O[C@@H](n2cc(/C=C/Br)c(=O)[nH]c2=O)C[C@@H]1OC(=O)c1ccc([N+](=O)[O-])cc1)c1ccc([N+](=O)[O-])cc1 [Example 31, E-5-(2-bromovinyl)-3',5'-di-O(4-nitrobenzoyl)-2-deoxy-uridine] |  |  | > 100 µg/mL | 20 µg/mL and 32 µM
O=C(OC[C@H]1O[C@@H](n2cc(/C=C/Br)c(=O)[nH]c2=O)C[C@@H]1O)c1ccccc1 [Example 3, 5'-O-benzoyl-E-5-(2-bromovinyl)-2'-deoxyuridine] | 3700 nM | 1.7 µg/mL | > 100 µg/mL | 
O=C(OC[C@H]1O[C@@H](n2cc(/C=C/Br)c(=O)[nH]c2=O)C[C@@H]1O)c1ccc(Cl)cc1 [Example 18, E-5-(2-Bromovinyl)-5'-0-p-chlorobenzoyl-2'-deoxyuridine] | 1780 nM | 0.84 µg/mL | > 100 µg/mL | 
O=C(c1ccc(Cl)cc1)n1c(=O)c(/C=C/Br)cn([C@H]2C[C@H](O)[C@@H](CO)O2)c1=O [Example 20, E-5-(2-Bromovinyl)-3-N-p-chlorobenzoyl-2'-deoxyuridine] | 250 nM | 0.12 µg/mL | > 100 µg/mL | 
CCCCC(=O)n1c(=O)c(/C=C/Br)cn([C@H]2C[C@H](O)[C@@H](CO)O2)c1=O [Example 23, E-5-(2-Bromovinyl)-3-N-valeryl-2'-deoxyuridine] | 620 nM | 0.26 µg/mL | > 100 µg/mL | 
O=C(OC[C@H]1O[C@@H](n2cc(/C=C/Br)c(=O)[nH]c2=O)C[C@@H]1OC(=O)c1ccccc1)c1ccccc1 [Example 2, E-5-(2-bromovinyl)-3',5'-di-O-benzoyl-2'-deoxyuridine] | 100000 nM | 54 µg/mL | > 100 µg/mL | 
O=C(c1ccccc1)n1c(=O)c(/C=C/Br)cn([C@H]2C[C@H](O)[C@@H](CO)O2)c1=O [Example 12, 3-N-Benzoyl-E-5-(2-bromovinyl)-2'-deoxyuridine] | 530 nM | 0.23 µg/mL | 100 µg/mL | 
O=C(OC[C@H]1O[C@@H](n2cc(/C=C/Br)c(=O)[nH]c2=O)C[C@@H]1OC(=O)c1ccc(Cl)cc1)c1ccc(Cl)cc1 [Example 15, E-5-(2-Bromovinyl)-3',5'-di-O-p-chlorobenzoyl-2'-deoxyuridine] | 121000 nM | 74 µg/mL | > 100 µg/mL | 
O=C(O[C@H]1C[C@H](n2cc(/C=C/Br)c(=O)n(C(=O)c3ccccc3)c2=O)O[C@@H]1CO)c1ccccc1 [Example 10, 3-N-Benzoyl-3'-O-benzoyl-E-5-(2-bromovinyl)-2'-deoxyuridine] | 3800 nM | 2.1 µg/mL | 100 µg/mL | 
CN(C)c1ccc(C(=O)O[C@H]2C[C@H](n3cc(/C=C/Br)c(=O)n(C(=O)c4ccc(N(C)C)cc4)c3=O)O[C@@H]2CO)cc1 [Example 48, E-5-(2-Bromovinyl)-3-N-(p-dimethylaminobenzoyl)-3'-O-(p-dimethylaminobenzoyl)-2'-deoxyuridine] | 940 nM | 0.47 µg/mL | > 100 µg/mL | 
O=C(O[C@H]1C[C@H](n2cc(/C=C/Br)c(=O)[nH]c2=O)O[C@@H]1CO)c1ccc(Cl)c(Cl)c1 [Example 34, E-5-(2-bromovinyl)-3'-O-(3,4-dichlorobenzoyl)-2'-deoxyuridine] | 2300 nM | 1.2 µg/mL | > 100 µg/mL | 
CCCN(CCC)S(=O)(=O)c1ccc(C(=O)n2c(=O)c(/C=C/Br)cn([C@H]3C[C@H](O)[C@@H](CO)O3)c2=O)cc1 [Example 30, E-5-(2-Bromovinyl)-3-[4-(N,N-di-n-propylsulphamoyl)benzoyl]-2'-deoxyuridine] | 180 nM | 0.11 µg/mL | > 100 µg/mL | 
O=C(c1cccc(Cl)c1)n1c(=O)c(/C=C/Br)cn([C@H]2C[C@H](O)[C@@H](CO)O2)c1=O [Example 26, E-5-(2-Bromovinyl)-3-N-(3-chlorobenzoyl)-2^1-deoxyuridine] | 530 nM | 0.25 µg/mL | > 100 µg/mL | 
O=C(Cc1ccccc1)OC[C@H]1O[C@@H](n2cc(/C=C/Br)c(=O)[nH]c2=O)C[C@@H]1OC(=O)Cc1ccccc1 [Example 17, E-5-(2-Bromovinyl)-3',5'-di-0-phenylacetyl-2'-deoxyuridine] |  |  | > 100 µg/mL | 3.9 µg/mL and 6.9 µM
O=C(OC[C@H]1O[C@@H](n2cc(/C=C/Br)c(=O)[nH]c2=O)C[C@@H]1O)c1ccc([N+](=O)[O-])cc1 [Example 32, E-5-(2-Bromovinyl)-5' -O-(4-nitrobenzoyl)-2'-deoxyuridine] | 2000 nM | 0.95 µg/mL | > 100 µg/mL | 
O=C(OC[C@H]1O[C@@H](n2cc(/C=C/Br)c(=O)[nH]c2=O)C[C@@H]1O)c1ccc(Cl)c(Cl)c1 [Example 35, E-5-(2-Bromovinyl)-5' -O-(3 ,4-dichlorobenzoyl)-2'-deoxyuridine] | 2800 nM | 1.4 µg/mL | > 100 µg/mL | 
